Source: US20090220996A1, “In vitro Assay Methods for Classifying Embryotoxicity of Compounds” (RELIANCE LIFE SCIENCES PVT LTD., priority 2007, published 2009)
In brackets after ≈: the same amount, converted by molar mass. Where two headings read alike, the source gives them in different places.

Key:
[1] = tested on: human embryonic stem cells (hES); assay: Cytotoxicity in undifferentiated human embryonic stem cells, day 15 (FACS with PI / CyQUANT); format: cell-based; details: for IC50: Homo sapiens, Embryonic stem cell
Method: In general, the presently disclosed embryotoxicity testing protocols comprise the following sequence of steps. Studies using embryoid bodies generally comprise: a) preparation of various concentrations of test solutions in culture medium or a desired solvent; b) preparation of a cell suspension by enzymatic digestion of human embryonic stem cell colonies; c) culturing the cell suspension for formation of embryoid bodies in the presence and absence of one or more test solutions, and incubation for several days (e.g., three days) in hanging drops; d) cultivation of the embryoid bodies in bacteriological petri dishes for several days (e.g., two days) under controlled conditions; e) transfer of the embryoid bodies into 96 well plates and incubation for several days (e.g., 10 days) in the presence of one or more test solutions; and f) detection of the viability of the embryoid bodies after 15 days by MTT assay, or fluorescent or luminescent method, and isolation of RNA for studying gene expression. Studies using human foreskin fibroblasts (HFF) generally comprise: a) preparation of various concentrations of test solutions in culture medium or a desired solvent; b) plating of HFF cells in 96 well plates in the presence or absence of one or more test solutions for 15 days, changing the media and test solutions every 2 days; and c) detection of the viability of HFF after 15 days by MTT assay, or fluorescent or luminescent method. Studies using human embryonic stem cells generally comprise: a) preparation of various concentrations of test solutions in culture medium or a desired solvent; b) preparation of hES colonies by manual passage in the presence and absence of one or more test solutions, and incubation for 15 days on matrigel coated plates changing the media and test solutions every 2 days; c) disruption of the colonies after 15 days with enzymes to form single cells; d) labeling of single cells with a fluorescently-labeled dye, such as propidium iodide (“PI”); and e) detection of the percentage viability with FACS as a measure of cytotoxicity. […]
After 2 hours incubation, 150 μl of assay medium containing the appropriate concentration of test chemical (150 μl volume contains 1.333× the final chemical concentration) was added. Appropriate blanks without the chemicals were used along with the test samples The cell cultures were incubated at 5% CO2 and 37° C. for 3 days. On day 3, test solution was removed with the care, so that the cell layer on the bottom of the wells was not disturbed. Next, 200 μl of freshly prepared test solution (final concentration/well as on day 0) was added, and the cell cultures were incubated at 5% CO2 and 37° C. for 3 days. This process was repeated on days 6, 9, and 12. Determination of cell growth inhibition was performed at day 15 of the assay using MTT reagent. Cytotoxicity for hES cells was calculated using flow cytometry. Briefly, cells were placed on matrigel coated plates along with different test compound concentrations. Media was replaced every 3 days along with the different test compound concentrations. At day 15, hES cells were collected by trypsinization, and after washing with PBS, the cells were incubated with PI for 10 minutes in the dark. Percent viability for various test compound concentrations was calculated using flow cytometry.
Cytotoxicity analysis of three cell types (hES, hEBs and HFF) was evaluated using the CyQUANT assay following compound treatment. All data were the mean of three independent experiments for each cell type. Data is represented as the mean±SE.

[2] = tested on: lineage marker gene expression in hEBs; assay: Gene expression profile of day 15 hEBs (RT-PCR, densitometry) and ID50; format: cell-based, human; details: for lineage markers down-regulated / affected: summary statement, hEBs
Method: On the 15th day, differentiated cells that are adherent are washed with 2 ml DPBS and trypsinized (0.05%) from 24 well plates and collected in a tube. The tube is centrifuged at 2000 rpm for 10 minutes to pellet the cells. The total RNA is isolated using TRIzol (Invitrogen Corporation) following the manufacturer's instructions. The RNA is quantified by absorbance at 260 nm, and 1-2 μg of RNA from control and drug treated cells are converted to cDNA using Superscript cDNA synthesis kit (Invitrogen Corporation) following the manufacturer's instructions. cDNA was used to study the expression of genes specific for ectoderm, mesoderm, and endoderm, by an appropriate method, such as RT-PCR, qPCR, or microarray. Markers indicative of each lineage are used.
The changes in gene expression in the presence or absence of the drug are compared. Changes in a mesodermal marker representative of cardiogenesis is used to calculate ID50 values of the tested compounds, and densitometry of the band intensities from RT-PCR, or CT values from qPCR, are used to calculate the ID50 values.
Various compounds were tested for their effect on the gene expression profiles of homeobox transcription factor Nanog (“NANOG”; GenBank Accession Number AB093576), neurofilament, heavy polypeptide 200 KDa (“NEFH” or “NFH”; GenBank Accession Number X15307), keratin-15 (“KRT15”; GenBank Accession Number X07696), actin, alpha, cardiac muscle (“ACTC1”; GenBank Accession Number NM_005159), msh homeobox 1 (“MSX1”; GenBank Accession Number BC067353), CD34 molecule (“CD34”; GenBank Accession Number BC039146), alpha fetoprotein (“AFP”; GenBank Accession Number J00077), serum albumin (“ALB”; GenBank Accession Number M12523), bone morphogenetic protein 4 (“BMP4”; GenBank Accession Number NM_130850), and bone morphogenetic protein 5 (“BMP5”; GenBank Accession Number M60314) in hEBs. Glyceraldehyde-3-phosphate dehydrogenase (“GAPDH”; GenBank Accession Number J04038) was used as a control.
RNA was extracted from different drug treated groups using the trizol method. One microgram of RNA was converted to cDNA using superscript reverse transcriptase. PCR was performed with the initial denaturation cycle at 94° C. for 5 min, followed by 35 cycles of 94° C. for 30 seconds, annealing temperature varying (Table 1) for 30 seconds, 72° C. for 1 minute, followed final extension at 72° C. for 5 min. Electrophoresis was performed on 1.5% agarose gels. Paired comparisons were conducted using a paired t test, and all data are presented as mean values±S.E. Differences were considered significant at a 0.05 level of confidence.
For calculating IC50-hES and ID50-hES cells, one petri dish was used per concentration of the test chemical, as well as for the untreated control (assay medium) and the solvent control. The lid was turned carefully to its regular position and put on top of a petri dish filled with 5 ml PBS. […] The changes in gene expression in the presence or absence of the drug were compared. Changes in mesodermal marker representative of cardiogenesis was used to calculate ID50 values of the tested compounds, and the densitometry of the band intensities performed in case of RT-PCR, or CT values in case of qPCR, were used to calculate the ID50 values.

[3] = Table 5; cited from earlier work
mouse ES cells = details: Table 4; from the EST (Genschow, et al., 2000); cited from earlier work
[4] = 360 h, Table 3, mean of 3 experiments, day 15, read-out: IC50-hES
[5] = 0.1 μg/ml, day 15 hEBs, FIG. 5B
[6] = Table 4, CyQuant cell viability assay, read-out: Human EST IC50 - hES

Structure (SMILES)	IC50 [1, 4] [µg/mL]	lineage markers down-regulated / affected [2]	IC50 [1, 6] [µg/mL]	Effects on fetus [3]	General toxicity [3]	Mouse EST IC50 - mES (mouse ES cells) [µg/mL]	further results
O=c1[nH]cc(F)c(=O)[nH]1 [5-Fluorouracil, 5-fluorouracil]	0.546 (≈ 4.2 µM)	all the three lineage markers are effected					survival percentage ([1]; hES, 1 μg/ml, day 15, FIG. 3A): 30%; effect on cell viability ([1]; hES, up to 0.01 μg/ml, FIG. 3A): no major effect; down-regulation of ALB gene expression ([2]; 0.001 μg/ml, day 15 hEBs, FIG. 5B): 40%; decrease in NFH levels ([2]; 0.01 μg/ml, day 15 hEBs, FIG. 5B): 60%; down-regulation of AFP gene expression [2, 5]: 80%; down-regulation of MSX1 expression [2, 5]: 15%; down-regulation of NANOG expression [2, 5]: 25%; gene expression levels of ACTC1, KRT, CD34, BMP4, and BMP5 ([2]; 0.0001-0.1 μg/ml, day 15 hEBs, FIG. 5B): no change
CS(=O)(=O)OCCCCOS(C)(=O)=O [Busulfan, busulfan]	2.1 ± 0.6 (≈ 8.53 µM)		2.1 ± 0.6 (≈ 8.53 µM)	Reproductive	Hematopoietic	2.1	
Cn1c(=O)c2c(ncn2C)n(C)c1=O [Caffeine, caffeine]	110 ± 12.5 (≈ 566 µM)		110 ± 12.5 (≈ 566 µM)		Cardiac, CNS		survival ([1]; hES, 500 μg/ml, FIG. 3B): about 10%; decrease of AFP expression ([2]; 50 μg/ml, day 15 hEBs, FIG. 6B): 80%; decrease of NFH expression ([2]; 50 μg/ml, day 15 hEBs, FIG. 6B): 80%; decrease of keratin expression ([2]; 50 μg/ml, day 15 hEBs, FIG. 6B): 85%; decrease of ACTC1 expression ([2]; 500 μg/ml, day 15 hEBs, FIG. 6B): 40%; expression levels of NANOG, CD34, BMP4, MSX1, and BMP5 ([2]; day 15 hEBs, FIG. 6B): no significant change
NC(=O)NO [Hydroxyurea, hydroxyurea]	2.6 ± 0.2 (≈ 34.2 µM)		2.6 ± 0.2 (≈ 34.2 µM)			2.0	
COc1ccc2c(c1)c(CC(=O)O)c(C)n2C(=O)c1ccc(Cl)cc1 [Indomethacin, indomethacin]	73.4 ± 3.4 (≈ 205 µM)		73.4 ± 3.4 (≈ 205 µM)		Cardiac, Renal	29	
CC1(C)S[C@@H]2[C@H](NC(=O)Cc3ccccc3)C(=O)N2[C@H]1C(=O)O [Penicillin G, penicillin G]		only endodermal markers are down-regulated		None in Humans	Hypersensitivity	2950	IC50-hES ([1]; Table 3, mean of 3 experiments, day 15): 2013 ± 23.5 µg/mL (≈ 6020 µM); Human EST IC50 - hES ([1]; Table 4, CyQuant cell viability assay): 2013 ± 23.5 µg/mL; cell survival ([1]; hES, 5000 μg/ml (highest dose), FIG. 3C): 1-2%; ALB levels ([2]; 10 μg/ml, day 15 hEBs, FIG. 7): decreased; AFP levels decreased to ([2]; 100 μg/ml, day 15 hEBs, FIG. 7): 40%; markers of ectoderm, mesoderm, and endoderm other than AFP and ALB ([2]; day 15 hEBs, FIG. 7A): no significant change; expression of AFP and ALB ([2]; highest dose (5000 μg/ml), day 15 hEBs, FIG. 7B): complete loss of expression
